In patent publication US20180282260A1, “1-AMINOCYCLOPROPANE-1-CARBOXYLIC ACID POLYMORPHS” (Valent BioSciences LLC, priority 2017, published 2018):

How the values were obtained:
cotton cotyledons = assay: Cotton cotyledon bioefficacy assay (ethylene production by gas chromatography); assay type: in vivo; conditions: for Ethylene production in cotton cotyledons, average: Average of trials, 500 ppm ACC, 48 hours after application; for Ethylene production in cotton cotyledons: 500 ppm ACC sprayed on 10-day old cotyledons, removed 48 hours after application, incubated 4 to 7 hours
Protocol: The ACC anhydrate from Chem-Impex International, Inc., an ACC anhydrate prepared by Inogent Laboratories of India and the ACC trihydrate of the present invention were each dissolved with water to 500 ppm w!w of ACC and applied separately to individual sets of 10-day old cotton cotyledons by a hand sprayer in 4 separate trials. 48 hours after application the cotyledons were removed and incubated in sealed vials for 4 to 7 hours. Following incubation, the cotyledons were measured for ethylene gas production by gas chromatography.

[1] = Crystal form stability under high humidity; assay type: physicochemical

| Compound | Ethylene production in cotton cotyledons, average (cotton cotyledons) | Ethylene production in cotton cotyledons (cotton cotyledons; Trial 1) | Ethylene production in cotton cotyledons (cotton cotyledons; Trial 2) | Ethylene production in cotton cotyledons (cotton cotyledons; Trial 3) | Ethylene production in cotton cotyledons (cotton cotyledons; Trial 4) | Ethylene production in cotton cotyledons, average (cotton cotyledons; trihydrate) | Ethylene production in cotton cotyledons (cotton cotyledons; Trial 1, trihydrate) | Ethylene production in cotton cotyledons (cotton cotyledons; Trial 2, trihydrate) | Ethylene production in cotton cotyledons (cotton cotyledons; Trial 3, trihydrate) | Ethylene production in cotton cotyledons (cotton cotyledons; Trial 4, trihydrate) | Stability of crystal form [1] |
| --- | --- | --- | --- | --- | --- | --- | --- | --- | --- | --- | --- |
| NC1(C(=O)O)CC1 [Chem-Impex Anhydrate, 1-aminocyclopropane-1-carboxylic acid anhydrate] | 25.66 nL C2H4/g/hr | 28.14 nL C2H4/g/hr | 23.18 nL C2H4/g/hr |  |  |  |  |  |  |  |  |
| NC1(C(=O)O)CC1 [Inogent Anhydrate] | 20.07 nL C2H4/g/hr | 25.00 nL C2H4/g/hr | 20.33 nL C2H4/g/hr | 17.53 nL C2H4/g/hr | 17.43 nL C2H4/g/hr |  |  |  |  |  |  |
| NC1(C(=O)O)CC1 [Trihydrate, 1-aminocyclopropane-1-carboxylic acid trihydrate] |  |  |  |  |  | 22.71 nL C2H4/g/hr | 15.06 nL C2H4/g/hr | 22.04 nL C2H4/g/hr | 36.30 nL C2H4/g/hr | 17.46 nL C2H4/g/hr | most stable crystal form of ACC under high humidity |
